Test results from patent publication US4835180A, “N-(ω-cyanoalkyl)aminophenols and use as inhibitors of lipoxygenase activity” (Sterling Drug Inc., priority 1986, dated 1989).
Structures can show the parent of a compound that is named as a salt. Where two headings read alike, the source gives them in different places.

Assays:
[1] = target: T1, cyclooxygenase derived from rat basophilic leukemia (RBL-1) cells (Rattus norvegicus, UniProt Q63921); assay: % inhibition of formation of cyclooxygenase product prostaglandin D2 (C1) in RBL-1 microsomal homogenate; assay type: biochemical; parameters: inhibition: dose or concentration left out as unconfirmed; conditions: read-out: % Inhibition in vitro, C1 (prostaglandin D2)
T1 construct: Single cell suspensions of RBL-1 cells are homogenized to obtain the microsomal fraction containing lipoxygenase and cyclooxygenase; endogenous in cells; host or cells: RBL-1 (rat basophilic leukemia) cells, homogenate/microsomal fraction
T1 sequence (Q63921 27-602): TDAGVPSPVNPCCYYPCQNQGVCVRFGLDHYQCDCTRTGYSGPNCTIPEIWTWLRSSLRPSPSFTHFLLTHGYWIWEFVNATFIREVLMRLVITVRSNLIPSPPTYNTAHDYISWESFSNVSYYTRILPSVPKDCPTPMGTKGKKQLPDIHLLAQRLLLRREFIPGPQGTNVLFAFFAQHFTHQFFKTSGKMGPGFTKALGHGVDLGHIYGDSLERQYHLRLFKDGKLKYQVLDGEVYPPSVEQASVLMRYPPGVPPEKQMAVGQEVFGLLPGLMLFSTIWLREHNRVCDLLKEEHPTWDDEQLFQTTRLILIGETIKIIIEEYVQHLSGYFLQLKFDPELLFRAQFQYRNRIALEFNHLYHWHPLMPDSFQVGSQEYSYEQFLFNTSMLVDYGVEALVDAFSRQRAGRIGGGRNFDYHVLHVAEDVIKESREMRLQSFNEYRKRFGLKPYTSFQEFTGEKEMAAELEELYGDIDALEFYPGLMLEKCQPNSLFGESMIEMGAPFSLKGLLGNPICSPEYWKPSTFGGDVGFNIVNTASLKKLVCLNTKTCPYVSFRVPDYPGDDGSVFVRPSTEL
Procedure: (§1) The primary screening test used is a determination of the inhibition of lipoxygenase and cyclooxygenase derived from rat basophilic leukemia (RBL-1) cells. The test was carried out according to the following procedure:
(§2) Single cell suspensions of RBL-1 cells are homogenized to obtain the microsomal fraction containing lipoxygenase and cyclooxygenase. Test compounds are added to the enzyme-containing homogenate for a 5 min. preincubation period at 37° C. prior to the addition of ^14 C-arachidonic acid substrate. Following incubation at 37° C. for 15 min., the reaction is stopped by the addition of 2M formic acid and the enzyme-substrate products are extracted into chloroform. An aliquot of the extract is evaporated to dryness, reconstituted in ether to 1/10 original volume, spotted on thin layer chromatography plates and chromatographed. The peak areas of radioactivity representing the products are located by scanning the plates. The quantity of products formed is estimated by measuring the height of the radioactivity peaks observed on the chromatographic scans. Alternatively, the areas of radioactivity are scraped from the plate and the ^14 C quantitated by scintillation counting. The percent inhibition in the formation of the cyclooxygenase product prostaglandin D2, designated as C1, and lipoxygenase products 5,12-di-HETE and 5-HETE, designated L1 and L2 respectively, are shown. Compounds with >50% inhibition of L1 and L2 at a screening concentration of 1 μM are considered active.

[2] = target: T2, lipoxygenase derived from rat basophilic leukemia (RBL-1) cells (Rattus norvegicus, UniProt P12527); assay: % inhibition of formation of lipoxygenase products 5,12-di-HETE (L1) and 5-HETE (L2) in RBL-1 microsomal homogenate; assay type: biochemical; parameters: inhibition: dose or concentration left out as unconfirmed
T2 construct: Single cell suspensions of RBL-1 cells are homogenized to obtain the microsomal fraction containing lipoxygenase and cyclooxygenase; endogenous in cells; host or cells: RBL-1 (rat basophilic leukemia) cells, homogenate/microsomal fraction
T2 sequence (P12527 1-673): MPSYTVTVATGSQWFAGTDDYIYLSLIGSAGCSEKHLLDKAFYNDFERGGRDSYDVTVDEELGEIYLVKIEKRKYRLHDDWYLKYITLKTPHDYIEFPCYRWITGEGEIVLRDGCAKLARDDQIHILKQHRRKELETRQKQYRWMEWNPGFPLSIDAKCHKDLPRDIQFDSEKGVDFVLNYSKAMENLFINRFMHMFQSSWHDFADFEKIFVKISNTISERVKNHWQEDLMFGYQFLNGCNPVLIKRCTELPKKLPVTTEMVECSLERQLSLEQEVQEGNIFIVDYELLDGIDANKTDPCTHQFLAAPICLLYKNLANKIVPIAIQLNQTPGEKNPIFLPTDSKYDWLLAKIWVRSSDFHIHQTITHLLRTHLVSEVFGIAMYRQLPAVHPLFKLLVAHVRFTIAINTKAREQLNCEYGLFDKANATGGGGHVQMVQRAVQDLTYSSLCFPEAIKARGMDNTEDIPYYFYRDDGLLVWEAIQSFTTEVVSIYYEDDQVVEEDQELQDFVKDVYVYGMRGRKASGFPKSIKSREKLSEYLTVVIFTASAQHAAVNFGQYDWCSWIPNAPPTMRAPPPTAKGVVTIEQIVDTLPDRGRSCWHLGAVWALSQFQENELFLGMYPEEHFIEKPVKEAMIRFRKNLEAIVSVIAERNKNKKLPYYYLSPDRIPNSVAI
Procedure: as §1, §2

[3] = test system: SRS-A component of immunologically induced bronchoconstriction; assay: effect on the SRS-A component of immunologically induced bronchoconstriction in guinea pigs; assay type: in vivo; conditions: guinea pig
Procedure: The test was carried out according to the following procedure: Outbred female guinea pigs were sensitized to egg albumin by a 1 mL ip injection of a 1 mg/mL egg albumin alum suspension. Twelve to sixteen days after immunization, the animals were used for the test. They were anesthetized with urethane (1.5 gm/kg ip) and surgically prepared with a jugular vein canula connected to a three-way stopcock for administration of drugs and antigen challenge. The trachea was cannulated and the animal artifically respired. The intratracheal pressure was continuously recorded and expressed in mm Hg. Naproxen sodium (10 mg/kg) and pyrilamine maleate (0.3 mg/kg) in phosphate buffered saline, pH 7.2, were administered intravenously in a single solution seven minutes prior to antigen challenge. Propranolol (0.1 mg/kg) was also given iv three minutes prior to challenge with egg albumin (300 μg/kg iv). The animals were dosed orally with compounds in water or in a vehicle of 3% corn starch, 5% polyethylene glycol 400, and 0.34% Tween 8™ in water at one or four hours before challenge. Results were recorded as the maximum increase in intratracheal pressure following antigen challenge. Activity of the compounds was measured as percent inhibition of the mean peak intratracheal pressure in the group of dosed animals in comparison to the mean peak intratracheal pressure in the group of vehicle treated animals. The results are expressed in terms of % inhibition.

[4] = read-out: % Inhibition in vitro, L2 (5-HETE)
[5] = 0.25 h, line carries a superscript without letter (probably footnote a, 0.1 μM)
[6] = 0.25 h, line carries a superscript without letter (probably footnote a, 0.1 μM), read-out: % Inhibition in vitro, L1 (5,12-di-HETE)
[7] = 0.25 h, line carries a superscript without letter (probably footnote a, 0.1 μM), read-out: % Inhibition in vitro, L2 (5-HETE)
[8] = 100 mg/kg p.o., at 1 hour before challenge
[9] = 100 mg/kg p.o., at 4 hours before challenge
[10] = read-out: % Inhibition in vitro, L1 (5,12-di-HETE)

Row | inhibition [1] [%] | inhibition [2, 4] [%] | inhibition at 1 µM [1, 5] [%] | inhibition at 1 µM [2, 6] [%] | inhibition at 1 µM [2, 7] [%] | Structure (SMILES) | % Inhibition in vivo (mean peak intratracheal pressure) [3, 8] [%] | % Inhibition in vivo (mean peak intratracheal pressure) [3, 9] [%] | other results
1 | 0 | 65 |  |  |  | Cc1cc(O)ccc1NCCCCCCC#N.Cl [Example 7c, 7-[(4-Hydroxy-2-methylphenyl)amino]heptanenitrile monohydrochloride] |  |  | % Inhibition in vivo (mean peak intratracheal pressure) ([3]; 300 mg/kg p.o. (footnote b), at 1 hour before challenge): 66%; % Inhibition in vivo (mean peak intratracheal pressure) ([3]; 300 mg/kg p.o. (footnote b), at 4 hours before challenge): 86%
2 |  |  | 0 | 100 | 100 | N#CCCCCNc1ccc(O)cc1 [Example 1c, 5-[(4-Hydroxyphenyl)amino]pentanenitrile] |  |  | 
3 |  |  | 0 | 100 | 100 | N#CCCCCCCCNc1ccc(O)cc1.O=C(O)/C=C\C(=O)O [Example 4c, 8-[(4-Hydroxyphenyl)amino]octanenitrile (Z)-2-butenedioate] | 17 | 76 | 
4 |  |  | 13 | 100 | 100 | Cc1cc(NCCCCCCC#N)ccc1O [Example 8c, 7-[(4-Hydroxy-3-methylphenyl)amino]heptanenitrile monohydrochloride] |  |  | 
5 |  |  | 10 | 100 | 100 | N#CCCCCCCNc1ccc(O)c(CO)c1 [Example 10c, 7-[[4-Hydroxy-3-(hydroxymethyl)phenyl]amino]heptanenitrile monohydrochloride] |  |  | 
6 |  |  |  |  |  | N#CCCCCCCNc1ccc(O)cc1 [Example 2d, 7-[(4-Hydroxyphenyl)amino]heptanenitrile] | 66 | 61 | inhibition at 1 µM [1]: 42%; inhibition at 1 µM [2, 10]: 92%; inhibition at 1 µM [2, 4]: 98%
7 | 0 | 95 |  |  |  | N#CCCCCCCCCNc1ccc(O)cc1.O=C(O)/C=C\C(=O)O [Example 5c, 9-[(4-Hydroxyphenyl)amino]nonanenitrile (Z)-2-butenedioate] | 0 | 25 | inhibition [2, 10]: 82%
8 |  |  | 28 | 100 | 100 | CN(CCCCCCC#N)c1ccc(O)cc1 [Example 6c] | 6 |  | 
9 | 14 | 85 |  |  |  | CC(=O)Oc1ccc(N(C)CCCCCCC#N)cc1 [Example 6d, 7-[[4-(Acetyloxy)phenyl]methylamino]heptanenitrile] |  |  | inhibition [2, 10]: 91%
10 | 0 | 100 |  |  |  | Cl.N#CCCCCCCNc1ccccc1O [Example 3c, 7-[(2-Hydroxyphenyl)amino]heptanenitrile monohydrochloride] | 4 | 11 | 
11 | 9 | 95 |  |  |  | N#CCCCCCCNc1cc(Cl)c(O)c(Cl)c1 [Example 9c, 7-[(3,5-Dichloro-4-hydroxyphenyl)amino]heptanenitrile monohydrochloride] |  |  | 
12 | 22 | 93 |  |  |  | Cl.N#CCCCCCCNc1ccc(O)cc1F [Example 11c, 7-[(2-Fluoro-4-hydroxyphenyl)amino]heptanenitrile monohydrochloride] | 7 | 30 | inhibition [2, 10]: 86%
